Key:
[1] = tested on: tactile allodynia in a spinal nerve ligation neuropathic pain model; assay: Lumbar 5/6 spinal nerve ligation neuropathic pain model, mechanical paw withdrawal threshold (von Frey); assay type: in vivo, rat; conditions: pretreatment with 5 mg/kg i.p.; rats
Text: Neuropathic pain was induced following the methods of Kim and Chung. Kim S H, Chung J M. An experimental model for peripheral neuropathy produced by segmental spinal nerve ligation in the rat. Pain 1992; 50:355-63. Rats were anesthetized and placed prone under a microsurgical apparatus. A midline incision was made on the back, and the right paraspinal muscles were separated from the spinous processes at the L4-S2 levels. The L6 transverse process was carefully removed, and the L4/5 spinal nerves were identified. The L5 nerve was tightly ligated with a 6-0 silk suture. The right L6 spinal nerve was then located just caudal and medial to the sacroiliac junction and tightly ligated with a silk suture.
Two weeks later after spinal nerve ligation, Intrathecal catheters (PE-10 tubing) was inserted into the rats while they were anesthetized with isoflurane, as described by Yaksh and Rudy. Yaksh T L, Rudy T A. Chronic catheterization of the spinal subarachnoid space. Physiology & Behavior 1976; 17:1031-6. A midline incision was made on the back of the neck. The muscle was freed at the attachment to the skull exposing the cisternal membrane. The membrane was opened with a stab blade and an 8.5 cm polyethylene (PE-10) catheter was then inserted through the cisternal opening, and passed carefully and caudally into the intrathecal space at the L1-L3 spinal segments. The end of the catheter was tunneled through the subcutaneous space over the frontal bones, flushed with 10 μl saline, and then plugged with a short length of wire Animal testing was performed 5-7 days after intrathecal catheter placement.
To assess mechanical allodynia, the mechanical paw withdrawal threshold was measured with a series of von Frey hairs (range 0.4-15 g). Rats were placed in elevated Perspex enclosures (28 cm×15 cm×18 cm) with wire mesh bases and given 15-20 min to acclimatize to the testing environment. Rats will be allowed to acclimatize for 30 min in a clear plastic cage with a wire mesh bottom. The calibrated von Frey filament fibers were applied to the hindpaw briefly for 6 seconds to determine the paw withdrawal threshold before and after drug injection (intraperitoneally or intrathecally). A series of von Frey filaments with exponentially incremental stiffness (0.4, 0.7, 1.2, 2.0, 3.6, 5.5, 8.5 and 15 g) were used to measure the 50% threshold for hindpaw withdrawal in awake, unrestrained rats. Chaplan S R, Bach F W, Pogrel J W, Chung J M, Yaksh T L. Quantitative assessment of tactile allodynia in the rat paw. Journal of Neuroscience Methods 1994; 53:55-63. Brisk paw withdrawal from the pressure of a filament gently bent against the plantar paw was defined as a positive response, and absence of withdrawal within 6 s as a negative response. Filaments were touched to the hindpaw in sequential ascending or descending order until the threshold of response is crossed (allowing about 10 s between each increment of the von Frey filaments). Each time the threshold is crossed, the direction of stimulus presentation was reversed and the procedure will be resumed. Four responses were collected after the first threshold detection, and the 50% withdrawal thresholds were interpolated. In cases where response thresholds fell outside the range of detection, 15.00 and 0.25 g were, respectively, assigned for continuous negative or positive responses to the limit of stimuli.
All surgical procedures were performed under deep isoflurane anesthesia in 100% O2. The spinal nerve ligation (SNL) was performed as described previously. Kim, S. H., et al., An Experimental Model for Peripheral Neuropathy Produced by Segmental Spinal Nerve Ligation in the Rat, Pain, 1992, 50:355-63. Briefly, a midline incision above the lumbar spine exposed the left L6 transverse process. The process was then removed, the left L5 and L6 spinal nerves were isolated, and both nerves were tightly ligated with 6-0 silk. […]

[2] = target: T1, human CB2 (hCB2) receptor (Homo sapiens, UniProt P34972); assay: CB2 binding assay, competitive binding of [3H]WIN 55212-2; conditions: read-out: % inhibition hCB2 receptor, at 1 μM; specific binding of [3H]-WIN55212-2; CHO membranes
T1 construct: expressed in transfected cells; host or cells: CHO (Chinese hamster ovary) cells, membranes
Protocol: Cell membrane homogenates (15 μg protein) are incubated for 120 min at 37° C. with 0.8 nM [^3H]WIN 55212-2 (the reference standard [Munro, 1993 #1321]) in the absence or presence of the test compound in a buffer containing 50 mM HEPES/Tris HCL (pH 7.4), 5 mM MgCl2, 2.5 mM EGTA, and 0.1% BSA. Nonspecific binding is determined in the presence of 10 μM WIN 55212-2. After being incubated, the samples are filtered rapidly under vacuum through glass fiber filters (GF/B; Packard) presoaked with 0.3% PEI and rinsed several times with ice-cold buffer containing 50 mM Tris HCl (pH 7.4) and 0.5% BSA using a 96-sample cell harvester (Unifilter; Packard). The filters are dried then counted for radioactivity in a scintillation counter (Topcount; Packard) using a scintillation cocktail (Microscint 0; Packard). The results are expressed as a percentage of the inhibition of the control radioligand-specific binding. The reference standard compounds are tested in each experiment at several concentrations to obtain a competition curve from which its IC50 is calculated.
(§1) […] [^3H]-CP55940 at a concentration of 0.5 nM and [^3H]-WIN55212 at a concentration of 0.8 nM were used as radioligands for hCB1 and hCB2 assays, respectively. The results are expressed as a percent inhibition of control specific binding. Compounds which displaced the radioligand by more than 50% for either hCB1 or hCB2 receptors were arbitrary chosen for functional activity determination.

[3] = target: T2, CB1 (Homo sapiens, UniProt P21554); assay: CB1 functional assay, [35S]GTP-γ-S binding; assay type: biochemical; parameters: purchased ES-110-MG; host or cells: CHO membrane extracts; conditions: for EC50 / Emax: Table 9; for EC50: mean of two determinations, read-out: [35S]GTP-γ-S hCB1 EC50 (nM ± SEM); for Emax: relative to the efficacy of CP 55,940; for Emax at 3 µM: read-out: [35S]GTP-γ-S hCB1 Emax (%), Table 9 footnote a: Efficacy determined at 3 μM, relative to CP 55,940
Protocol: (§2) A dose response curve was generated at eight concentrations in duplicate on CB1 and CB2 in light of reference agonists.
(§3) Membranes (CB1, ES-110-MG or CB2, ES-111-MG) are mixed with GDP (volume:volume) and incubated for at least […] on ice. In parallel, […] are mixed with the beads (volume:volume) just before starting the reaction. The following reagents are successively added in the wells of an Optiplate: 50 μl of ligand, 20 μl of the membranes:GDP mix, 10 μl of assay buffer for agonist testing and 20 μl of the […]: beads mix. The plates are covered with a topseal, shaken on an orbital shaker for 2 min, and then incubated between 30 to 60 min at room temperature. Then the plates are centrifuged for 10 min at 2000 rpm, incubated at room temperature between 1 to 4 hours and counted for 1 min with a PerkinElmer TopCount reader.
(§4) Functional activity for acyl hydrazone was evaluated using [^35S]GTP-γ-S assay in CHO membrane extracts expressing recombinant hCB1 receptor or hCB2 receptor. The assay relies on the binding of [^35S]GTP-γ-S, a radiolabeled nonhydrolyzable GTP analogue, to the G protein upon binding of an agonist of the G-protein-coupled receptor. In this system, agonists stimulate [^35S]GTP-γ-S binding whereas neutral antagonist have no effect and inverse agonists decrease [^35S]GTP-γ-S basal binding.
(§5) CB1 and CB2 assay data are presented as the mean of two determinations. […] For replicate determinations, the maximum variability tolerated in the test was of ±20% around the average of the replicates.

[4] = target: T3, hCB2 receptor (Homo sapiens, UniProt P34972); assay: CB2 functional assay, [35S]GTP-γ-S binding; assay type: biochemical; conditions: for Emax at 3 µM: read-out: [35S]GTP-γ-S hCB2 Emax (%), Table 9 footnote a: Efficacy determined at 3 μM, relative to CP 55,940; for EC50 / Emax: Table 9; for EC50: mean of two determinations, read-out: [35S]GTP-γ-S hCB2 EC50 (nM ± SEM); for Emax: relative to the efficacy of CP 55,940
T3 construct: purchased ES-111-MG; host or cells: CHO membrane extracts
Protocol: as §2, §3, §4, §5

[5] = target: T4, human CB1 (hCB1) receptor (Homo sapiens, UniProt P21554); assay: CB1 binding assay, competitive binding of [3H]CP 55940; conditions: at 1 μM; specific binding of [3H]-CP55940; CHO membranes
T4 construct: expressed in transfected cells; host or cells: CHO (Chinese hamster ovary) cells, membranes
Protocol: Cell membrane homogenates (25 μg protein) are incubated for 120 min at 37° C. with 0.5 nM [^3H]CP 55940 (the reference standard [Rinaldi-Carmona, 1996 #1320]) in the absence or presence of the test compound in a buffer containing 50 mM Tris HCl (pH 7.4), 5 mM MgCl2, 2.5 mM EDTA, and 0.3% bovine serum albumin (BSA). […]
as §1

[6] = target: T2, CB1; assay: CB1 antagonist functional assay; assay type: biochemical; conditions: data not shown

T3 sequence (P34972 whole entry): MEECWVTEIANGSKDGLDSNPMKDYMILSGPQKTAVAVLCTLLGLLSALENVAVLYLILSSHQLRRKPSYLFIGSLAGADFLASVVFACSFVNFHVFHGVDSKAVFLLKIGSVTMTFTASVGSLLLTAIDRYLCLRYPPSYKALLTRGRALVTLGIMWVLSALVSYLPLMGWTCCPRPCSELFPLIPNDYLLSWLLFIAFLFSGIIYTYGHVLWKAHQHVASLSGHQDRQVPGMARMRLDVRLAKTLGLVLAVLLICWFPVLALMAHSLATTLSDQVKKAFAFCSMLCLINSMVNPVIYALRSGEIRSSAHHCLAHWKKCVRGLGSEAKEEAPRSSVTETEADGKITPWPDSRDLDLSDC
T1 sequence (P34972 whole entry): as above
T4 sequence (P21554 whole entry): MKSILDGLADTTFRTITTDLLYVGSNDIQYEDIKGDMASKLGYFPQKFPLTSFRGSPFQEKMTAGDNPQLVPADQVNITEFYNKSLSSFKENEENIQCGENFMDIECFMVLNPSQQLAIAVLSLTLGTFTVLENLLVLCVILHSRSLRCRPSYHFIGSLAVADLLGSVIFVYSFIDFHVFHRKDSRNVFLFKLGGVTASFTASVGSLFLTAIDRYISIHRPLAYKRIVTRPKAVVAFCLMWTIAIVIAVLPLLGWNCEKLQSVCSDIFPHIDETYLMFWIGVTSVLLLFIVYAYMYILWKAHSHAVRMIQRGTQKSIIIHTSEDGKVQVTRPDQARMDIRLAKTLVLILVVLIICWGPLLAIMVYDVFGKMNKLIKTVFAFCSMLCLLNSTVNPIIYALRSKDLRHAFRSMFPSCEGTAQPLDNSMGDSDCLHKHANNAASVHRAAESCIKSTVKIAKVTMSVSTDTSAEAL
T2 sequence (P21554 whole entry): as above

Structure (SMILES) | effect of pretreatment on the anti-allodynic effect of Example 6 [1] | inhibition at 1 µM [2] [%] | functional activity on CB1 receptor (in words) ([3]; [35S]GTP-γ-S) | functional activity on CB2 receptor (in words) ([4]; [35S]GTP-γ-S) | Emax at 3 µM [4] [%] | inhibition at 1 µM [5] [%] | EC50 [3] [nM] | Emax [3] [%] | EC50 [4] [nM] | Emax [4] [%] | Emax at 3 µM [3] [%] | antagonist activity in a CB1 antagonist functional assay [6]
COc1ccc(C(=O)c2c(C)n(CCN3CCOCC3)c3cc(I)ccc23)cc1 [AM630, reference compound] | antagonized the effects of compound of Example 6 |  |  |  |  |  |  |  |  |  |  | 
CCCCCCN1C(=O)/C(=N/NC(=O)OC(C)(C)C)c2ccccc21 [Example 15, tert-butyl (2E)-2-(1-hexyl-2-oxo-1,2-dihydro-3H-indol-3-ylidene)hydrazinecarboxylate] |  | 27 ± 3.7 | failed to exhibited functional activity | failed to exhibited functional activity | 23.4 | 75 ± 0.1 |  |  |  |  |  | 
CCCCCCN1C(=O)/C(=N\NC(=O)c2ccc(OC)cc2)c2ccccc21 [Example 17, N′-[(3Z)-1-hexyl-2-oxo-1,2-dihydro-3H-indol-3-ylidene]-4-methoxybenzohydrazide] |  | 56 ± 5.7 |  |  |  | 81.7 ± 1.1 | 852 ± 1.2 | 71 | 143 ± 2.6 | 49.5 |  | 
CCCCCCN1C(=O)/C(=N\NC(=O)c2cccc3ccccc23)c2ccccc21 [Example 19, N′-[(3Z)-1-hexyl-2-oxo-1,2-dihydro-3H-indol-3-ylidene]-1-naphthohydrazide] |  | 69.8 ± 4 |  |  |  | > 80 |  |  | 202.2 ± 2 | 30.5 | 12.9 | failed to be antagonist
CCCCCCN1C(=O)/C(=N\NC(=O)C23CC4CC(CC(C4)C2)C3)c2ccccc21 [Example 20, N′-[(3Z)-1-hexyl-2-oxo-1,2-dihydro-3H-indol-3-ylidene]adamantane-1-carbohydrazide] |  | > 85 |  |  | 32.1 | > 85 |  |  |  |  | 34.6 | failed to be antagonist
CCCCN1C(=O)/C(=N\NC(=O)c2ccccc2)c2ccccc21 [Example 22, N′-[(3Z)-1-(1-butyl)-2-oxo-1,2-dihydro-3H-indol-3-ylidene]benzohydrazide] |  | 70 ± 2.4 |  |  |  | 86 ± 2.4 |  |  | 40.1 ± 1.5 | 98.9 | 69 | 
CCCCCN1C(=O)/C(=N\NC(=O)c2ccccc2)c2ccccc21 [Example 23, N′-[(3Z)-1-(1-pentyl)-2-oxo-1,2-dihydro-3H-indol-3-ylidene]benzohydrazide] |  | 80 ± 0.9 |  |  |  | 95 ± 0.9 | 314.1 ± 1.6 | 95.1 | 240 ± 3.2 | 68.5 |  | 
O=C(N/N=C1\C(=O)N(CC2CCCCC2)c2ccccc21)c1ccccc1 [Example 25, N′-[(3Z)-1-(cyclohexylmethyl)-2-oxo-1,2-dihydro-3H-indol-3-ylidene]benzohydrazide] |  | 100 ± 0.4 |  |  |  | 99 ± 1.1 | 62.3 ± 1.3 | 99 | 9.8 ± 1.1 | 65.7 |  | 
O=C(N/N=C1\C(=O)N(Cc2ccc(Cl)cc2)c2ccccc21)c1ccccc1 [Example 26, N′-[(3Z)-1-(4-chlorobenzyl)-2-oxo-1,2-dihydro-3H-indol-3-ylidene]benzohydrazide] |  | 22 ± 1.6 |  |  |  | 94.5 ± 0.8 | 895.6 ± 1.2 | 72 | 131 ± 1.7 | 39.8 |  | 

Reference: US9079854B2 (priority 2007, dated 2015)
